Assay results from patent US6806249B2, “Perfume containing surfactant compositions having perfume burst when diluted” (Unilever Home & Personal Care USA, a division of Conopco, priority 2002, dated 2004).
Where two headings read alike, the source gives them in different places. Marks after values point to notes of the source that are not given here. Each block holds one compound with its values, some of them ahead of it.

Experiments:
[1] = 50° C.; cited from earlier work
[2] = Dilution behaviour of components of a twelve-component perfume mixture in 5 wt. % sodium laurate, normalized GC headspace (FIG. 9); assay type: physicochemical; conditions: component of perfume mixture in 5 wt. % sodium laurate
Protocol: A typical fully formulated perfume used in a commercial product, e.g., personal wash formulation, usually is a multi-component composition in which the properties of each perfume component can vary dramatically. A typical perfume mixture in a 5 wt. % sodium laurate formulation was tested for its “perfume burst” behaviour upon dilution. The PBI values of the components in this perfume mixture vary from a large negative number (e.g., benzyl acetate, PBI=−819; PEA, PBI=−200 in sodium laurate solution) to a large positive number (e.g., gamma-methyl-ionone, PBI=1,677 in sodium laurate solution). The dilution behaviour of each component in this perfume mixture is shown in FIG. 9 (the graph represents a normalized GC measurement so the amount of burst of each molecule is clearly indicated). In this perfume mixture of twelve components, the dilution behaviour of each component is different. Each component has a unique dilution curve (GC headspace vs. dilution factor) governed by the factors (hydrophobicity, volatility, etc) discussed previously. […] For those perfumes with a moderate positive PBI (e.g., limonene, PBI=12; p-cymene=12.2 in sodium laurate solution), the perfume headspaces increases 1-2 times upon dilution.

[3] = Fragrance burst in shower liquids with different sodium laurate concentrations (FIG. 6); assay type: physicochemical; conditions: 5% sodium laurate product compared with 10, 15 (and 20) wt.%
Protocol: Limonene (PBI=12.2) was tested in shower liquids containing sodium laurate at 5, 10, 15 and 20 wt.%, γ-Methyl lonone and menthone were tested in sodium laurate at 5, 10 and 15 wt.% (FIG. 6).

[4] = Fragrance burst in shower liquids with surfactants of different CMC (FIG. 8); assay type: physicochemical; conditions: 5% sodium laureth sulfate (CMC=0.0011 wt/wt) compared with 5% sodium laurate (CMC=0.005 wt/wt)
Protocol: Limonene and γ-Methyl lonone were tested in two different shower liquid samples. One product was formulated with 5% sodium laurate (CMC=0.005 wt/wt) and the second with 5% sodium laureth sulfate (CMC=0.0011 wt/wt) (FIG. 8).

[5] = Critical micellization concentration (CMC) of surfactants; assay type: physicochemical; conditions: no reference given
Text: As noted, the perfume burst is affected not only by the perfume properties, but also by properties of the formulation in which the perfume is found. Thus, the number and type of surfactant micelles found in a surfactant solution also has an effect. […] The critical micellization concentration is defined as the surfactant concentration at which micelles begin to form from unassociated surfactant monomers (M. J. Rosen, Surfactants and Interfacial Phenomena, 2nd Ed., 1989). Conversely, in a surfactant with low critical micelle concentration (e.g., one where micelles do form easily or, stated differently, don't break apart as readily once formed), a perfume, being generally more hydrophobic, tends to stay in the surfactant more readily. As a result, the perfume will tend not to “burst” (increase perfume headspace) as readily and, to achieve more headspace, more dilution may be required. The CMC of the surfactant system also affects “perfume burst”. Thus, for example, a surfactant system of relatively low CMC (e.g., sodium lauryl ether sulfate, also known as SLES) lowers the PBI and can greatly reduce the expected “perfume burst” on dilution. By contrast, surfactant systems of relatively higher CMC (e.g., sodium laurate compared to SLES) would raise PBI and can thus increase “perfume burst” on dilution.

Compound: Sodium laureth sulfonate (3EO)
- CMC [1]: 0.00084*** wt./wt.

Compound: CC(=O)OCc1ccccc1 [Benzyl Acetate]
- perfume headspace behaviour upon dilution [2]: decrease upon dilution

Compound: Sodium laureth sulfonate (2EO)
- CMC [1]: 0.0011*** wt./wt.

Compound: CC(C)[C@@H]1CC[C@@H](C)CC1=O [Menthone]
- dilutions needed to reach maximum fragrance burst [3]: reached with fewer dilutions in the 5% soap product

Second part, led by results:

- overall fragrance burst [4]: lower overall fragrance burst
- perfume headspace behaviour upon dilution [2]: as high as seven times
Compound: CC(=O)/C(C)=C/C1C(C)=CCCC1(C)C (stereo not shown) [γ-methyl ionone]
- dilutions needed to reach maximum fragrance burst [3]: reached with fewer dilutions in the 5% soap product

- overall fragrance burst [4]: lower overall fragrance burst
Compound: C=C(C)[C@H]1CC=C(C)CC1 [Limonene]
- dilutions needed to reach maximum fragrance burst [3]: reached with fewer dilutions in the 5% soap product

- CMC [5]: 0.00032 wt./wt.
Compound: CCCCCCCC(=O)NCCC[N+](C)(C)CC(=O)[O-] [Caprylamidopropyl betaine]
